Results on 35 molecules are retold here after BindingDB's records for doi:10.7270/Q24B305P (D3R/Abbott, 2015).

The target in this test is T1, Urokinase-type plasminogen activator [179-424,C299A,N323Q] (Human, UniProt P00749, C299A/N323Q).
T1 construct: 179-424
Description: Photometric_Method1.

Structures are written as SMILES.

Regarding `Nc1cc2ccccc2cn1`, the Ki was over 30000 nM.
On to `N=C(N)c1ccc2ccccc2c1` [Naphthalene-2-carboxamidine], for which the inhibition constant Ki worked out at 5910 nM.
With `Nc1cnc2ccccc2n1` [uPa_1] the figure was over 50000 nM; with `COc1cc2ccc(C(=N)N)cc2c(OC)c1OC` [uPa_2], 8030 nM.
The result for `CC(C)Oc1ccc2cc(C(=N)N)ccc2c1` [uPa_5] reads 7280 nM; that for `COc1ccc2ccc(C(=N)N)cc2c1-c1cnn(C(C)C)c1` [uPa_11], 4500 nM.
With `N=C(N)c1ccc2cc(NS(=O)(=O)c3ccccc3)ccc2c1` [uPa_14] the figure was 8700 nM.
Regarding `N#CC(CCOc1cccc2ccc(N)nc12)(c1ccccc1)c1ccccc1` [uPa_16], the inhibition constant (Ki) was over 40000 nM.
With `COC(=O)Nc1cc(C(=O)Nc2ccc(CN)cc2)cc2ccc(C(=N)N)cc12` [uPa_17] the figure was 0.892 nM; with `CS(=O)(=O)n1cc(-c2cc(C(=O)Nc3ccccc3)cc3ccc(C(=N)N)cc23)cn1` [uPa_20], 769 nM; with `N=C(N)c1ccc2cc(C(=O)Nc3ccccc3)cc(-c3ncccn3)c2c1` [uPa_21], 7850 nM.
With `N=C(N)NC(=O)c1nc(Cl)c(NCc2cc(Cl)cc(Cl)c2)nc1N` [uPa_22] the figure was 3570 nM; with `Nc1ccc2nc(N)ccc2c1` [uPa_23], over 104000 nM.
The result for `COC(=O)Nc1ccc2nc(N)ccc2c1` [uPa_24] reads over 50000 nM; that for `N=C(N)c1ccc2cc(C#Cc3cccc(OC4CCCC4)c3)ccc2c1` [uPa_25], 665 nM; that for `CC(C)C1=NCCc2ccc(NC(=O)c3cc(Br)c4cc(C(=N)N)ccc4c3)cc21` [uPa_26], 15.7 nM.
`COC(=O)Nc1ccc2nc(C(=N)N)ccc2c1` [uPa_27] gave a Ki of over 50000 nM.
The result for `COc1cc(NC(=O)c2ccc3cc(C(=N)N)ccc3c2)cc(OC(C)C)c1` [uPa_28] reads 33.3 nM.
With `N=C(N)c1ccc2cc(C(=O)Nc3ccc4c(c3)C(c3ccccc3)=NCC4)ccc2c1` [uPa_29] the figure was 290 nM; with `C=CCNC(=O)Nc1cccc2ccc(N)nc12` [uPa_30], over 10000 nM; with `N=C(N)c1ccc2cc(C(=O)Nc3ccc4c(c3)C(C3CCCCC3)=NCC4)ccc2c1` [uPa_31], 66.3 nM.
The result for `N=C(N)c1ccc2cc(/C=C/CCc3cccnc3)cc(Br)c2c1` [uPa_32] reads 3080 nM; that for `C#CCN(C)C(=O)c1ccc2ccc(N)nc2c1` [uPa_33], over 100000 nM; that for `CC(C)CN(CC(C)C)C(=O)c1ccc2ccc(N)nc2c1` [uPa_34], over 100000 nM.
In the case of `CN(CC#N)C(=O)c1ccc2ccc(N)nc2c1` [uPa_35], the Ki was over 100000 nM.
With `COC(=O)Nc1cc(C(=O)Nc2ccccc2)cc2ccc(C(=N)N)cc12` [uPa_36] the figure was 18 nM; with `CS(=O)(=O)Nc1cc(CCc2ccccc2)cc2ccc(C(=N)N)cc12` [uPa_37], 1490 nM; with `CCOc1cc(OCC)c(OCC)cc1/C=C/c1cc(Br)c2cc(C(=N)N)ccc2c1` [uPa_38], 777 nM.
The result for `COC/C=C/c1cc(C2CC2c2ccc3c(c2)C(C(C)C)N(C)CC3)cc2ccc(C(=N)N)cc12` (stereo not given) [uPa_39] reads 21 nM; that for `CN1CCc2ccc(/C=C/c3ccc4cc(C(=N)N)ccc4c3)cc2C1C1CCCCC1` (stereo not given) [uPa_40], 223 nM; that for `CN1CCc2ccc(C3CC3c3ccc4cc(C(=N)N)ccc4c3)cc2C1C1CCC1` (stereo not given) [uPa_41], 42 nM.
Consider `COc1cc(C2CC2c2ccc3c(c2)C(C(C)C)N(C)CC3)cc2ccc(C(=N)N)cc12` (stereo not given) [uPa_42], for which the Ki was 94 nM. Against the preceding molecule, the Ki is about 2.2-fold higher.
With `CC(C)C1c2cc(C3CC3c3cc(/C=C/C4CC4)c4cc(C(=N)N)ccc4c3)ccc2CCN1C` (stereo not given) [uPa_43] the figure was 9 nM; with `CN1CCc2ccc(C3CC3c3ccc4cc(C(=N)N)ccc4c3)cc2C1c1cccnc1` (stereo not given) [uPa_44], 1250 nM.
For `N=C(N)NC(=O)c1ccc(Cl)c(S(N)(=O)=O)c1` [uPa_45], the Ki was over 100000 nM.

As usually defined, the Ki is a measure of affinity in units of concentration, obtained from inhibition or displacement. A low value points to higher affinity.
